Experimental data taken from ChEMBL document CHEMBL1159112, “Synthesis, biological evaluation, and molecular modeling of berberine derivatives as potent acetylcholinesterase inhibitors” (Bioorg Med Chem, 2010).

Tests used:
Acetylcholinesterase [1] = target: T1, Acetylcholinesterase (Electrophorus electricus, UniProt O42275); assay: Inhibition of electric eel AChE by modified Ellman method
Acetylcholinesterase [2] = target: T1, Acetylcholinesterase; assay: Inhibition of electric eel AChE by enzyme kinetics assay
Cholinesterase = Cholinesterase (Equus caballus, UniProt P81908)
Chain of Cholinesterase (P81908 whole entry): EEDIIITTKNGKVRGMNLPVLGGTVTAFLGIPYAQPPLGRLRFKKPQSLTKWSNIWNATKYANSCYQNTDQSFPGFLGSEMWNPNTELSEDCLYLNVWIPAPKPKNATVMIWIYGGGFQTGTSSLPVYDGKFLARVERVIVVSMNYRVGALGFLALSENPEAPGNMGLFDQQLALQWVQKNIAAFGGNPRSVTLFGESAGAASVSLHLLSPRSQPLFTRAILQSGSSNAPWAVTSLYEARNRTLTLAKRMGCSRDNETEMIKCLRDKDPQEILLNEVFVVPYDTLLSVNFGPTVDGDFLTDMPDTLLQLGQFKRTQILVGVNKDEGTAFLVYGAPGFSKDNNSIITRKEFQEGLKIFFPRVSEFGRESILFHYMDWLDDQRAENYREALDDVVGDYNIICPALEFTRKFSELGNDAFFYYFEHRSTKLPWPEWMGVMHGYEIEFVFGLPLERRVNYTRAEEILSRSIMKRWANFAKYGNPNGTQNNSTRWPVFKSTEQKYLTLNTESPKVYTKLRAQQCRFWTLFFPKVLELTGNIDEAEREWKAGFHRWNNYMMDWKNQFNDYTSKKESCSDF
Description: Inhibition of horse serum BChE by Ellman's method

[3] = Selectivity for electric eel AChE over horse serum BChE

T1 sequence (O42275 whole entry): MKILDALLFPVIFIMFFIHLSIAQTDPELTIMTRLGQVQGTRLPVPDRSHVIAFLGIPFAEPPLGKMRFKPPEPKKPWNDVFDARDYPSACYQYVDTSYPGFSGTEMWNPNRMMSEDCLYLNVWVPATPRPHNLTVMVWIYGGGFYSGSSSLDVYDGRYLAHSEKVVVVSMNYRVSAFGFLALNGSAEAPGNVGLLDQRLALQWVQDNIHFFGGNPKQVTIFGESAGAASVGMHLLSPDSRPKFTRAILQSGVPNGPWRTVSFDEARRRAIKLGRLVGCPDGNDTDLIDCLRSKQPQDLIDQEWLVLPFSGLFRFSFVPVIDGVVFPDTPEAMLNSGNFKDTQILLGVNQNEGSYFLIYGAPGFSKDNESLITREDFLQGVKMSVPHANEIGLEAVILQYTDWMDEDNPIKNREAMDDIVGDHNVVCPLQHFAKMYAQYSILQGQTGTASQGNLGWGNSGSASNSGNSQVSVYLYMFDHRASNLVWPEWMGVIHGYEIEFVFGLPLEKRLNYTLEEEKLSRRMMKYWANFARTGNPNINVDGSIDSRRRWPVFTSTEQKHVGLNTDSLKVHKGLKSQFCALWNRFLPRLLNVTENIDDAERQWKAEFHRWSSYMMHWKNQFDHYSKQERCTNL

`COc1ccc2cc3[n+](cc2c1OCCCCCOc1cccc2[nH]c4ccccc4c12)CCc1cc2c(cc1-3)OCO2` showed an IC50 (Acetylcholinesterase [1]) of 1680 nM.
For `COc1ccc2cc3[n+](cc2c1OCCCOc1ccccc1)CCc1cc2c(cc1-3)OCO2`, the IC50 (Acetylcholinesterase [1]) was 123 nM.
`COc1ccc2cc3[n+](cc2c1OC)CCc1cc2c(cc1-3)OCO2` [BERBERINE CHLORIDE] showed a Ki (Acetylcholinesterase [2]) of 289 nM and an IC50 (Acetylcholinesterase [1]) of 374 nM.
Compound `COc1ccc2cc3[n+](cc2c1OCCCCOc1cccc2[nH]c4ccccc4c12)CCc1cc2c(cc1-3)OCO2` has an IC50 (Acetylcholinesterase [1]) of 856 nM.
`COc1ccc2cc3[n+](cc2c1OCCCOc1cccc2[nH]c4ccccc4c12)CCc1cc2c(cc1-3)OCO2` gave an IC50 (Acetylcholinesterase [1]) of 1120 nM.
With `COc1ccc2cc3[n+](cc2c1OCCCCOn1nnc2ccccc21)CCc1cc2c(cc1-3)OCO2` the IC50 (Acetylcholinesterase [1]) was 224 nM, the IC50 (Cholinesterase) was 4170 nM and the Ratio IC50 [3] was 18.6.
For `COc1ccc2cc3[n+](cc2c1OCCCCCCOn1nnc2ccccc21)CCc1cc2c(cc1-3)OCO2`, the IC50 (Acetylcholinesterase [1]) was 515 nM and the Ratio IC50 [3] was 5.5.
For `COc1ccc2cc3[n+](cc2c1OCCCCCOn1nnc2ccccc21)CCc1cc2c(cc1-3)OCO2`, the IC50 (Acetylcholinesterase [1]) was 280 nM, the IC50 (Cholinesterase) was 2490 nM and the Ratio IC50 [3] was 8.9.
For `COc1ccc2cc3[n+](cc2c1OCCCCCOc1ccccc1)CCc1cc2c(cc1-3)OCO2`, the IC50 (Acetylcholinesterase [1]) was 398 nM.
For `COc1ccc2cc3[n+](cc2c1OCCOn1nnc2ccccc21)CCc1cc2c(cc1-3)OCO2`, the IC50 (Acetylcholinesterase [1]) was 375 nM.
Work on `COc1ccc2cc3[n+](cc2c1OCCOc1ccccc1)CCc1cc2c(cc1-3)OCO2` yielded an IC50 (Acetylcholinesterase [1]) of 224 nM.
Work on `COc1ccc2cc3[n+](cc2c1OCCCOn1nnc2ccccc21)CCc1cc2c(cc1-3)OCO2` yielded an IC50 (Acetylcholinesterase [1]) of 359 nM, an IC50 (Cholinesterase) of 2890 nM and a Ratio IC50 [3] of 8.
With `COc1ccc2cc3[n+](cc2c1OCCOc1cccc2[nH]c4ccccc4c12)CCc1cc2c(cc1-3)OCO2` the IC50 (Acetylcholinesterase [1]) was 1230 nM.
In the case of `COc1ccc2cc3[n+](cc2c1OCCCCCCOc1cccc2[nH]c4ccccc4c12)CCc1cc2c(cc1-3)OCO2`, the IC50 (Acetylcholinesterase [1]) is reported as 2100 nM.
For `COc1ccc2cc3[n+](cc2c1OCCCCCCOc1ccccc1)CCc1cc2c(cc1-3)OCO2`, the IC50 (Acetylcholinesterase [1]) was 520 nM.
